# Reference: US10870647B2, “Imidazopyridine derivative, method for preparing same, and pharmaceutical composition containing same as active ingredient for preventing or treating cancer” (DAEGU-GYEONGBUK MEDICAL INNOVATION FOUNDATION, priority 2016, dated 2020)
# Key:
# Experiment in all cases: Kinase selectivity, scanMAX Kinase assay panel (DiscoverX), % control at 1 uM
# Assay type in all cases: binding
# [1] = target: T1, scanMAX Kinase assay panel (Homo sapiens, UniProt P00519, M351T); conditions: ABL1 (M351T)-phosphorylated; 1 uM; read-out: Percent Control (%)
# T1 construct: purchased DiscoverX
# Summary of the method: (§1)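 Each kinase was first exposed to the test compound at 1 uM in DMSO. Signal was then normalised to positive and negative controls to give % control. Finally, any enzyme showing <35% control was judged inhibited.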
# [2] = target: T2, scanMAX Kinase assay panel (Homo sapiens, UniProt P22607, G697C); conditions: FGFR3 (G697C); 1 uM; read-out: Percent Control (%)
# T2 construct: purchased DiscoverX
# T2 sequence (P22607 23-806 G697C): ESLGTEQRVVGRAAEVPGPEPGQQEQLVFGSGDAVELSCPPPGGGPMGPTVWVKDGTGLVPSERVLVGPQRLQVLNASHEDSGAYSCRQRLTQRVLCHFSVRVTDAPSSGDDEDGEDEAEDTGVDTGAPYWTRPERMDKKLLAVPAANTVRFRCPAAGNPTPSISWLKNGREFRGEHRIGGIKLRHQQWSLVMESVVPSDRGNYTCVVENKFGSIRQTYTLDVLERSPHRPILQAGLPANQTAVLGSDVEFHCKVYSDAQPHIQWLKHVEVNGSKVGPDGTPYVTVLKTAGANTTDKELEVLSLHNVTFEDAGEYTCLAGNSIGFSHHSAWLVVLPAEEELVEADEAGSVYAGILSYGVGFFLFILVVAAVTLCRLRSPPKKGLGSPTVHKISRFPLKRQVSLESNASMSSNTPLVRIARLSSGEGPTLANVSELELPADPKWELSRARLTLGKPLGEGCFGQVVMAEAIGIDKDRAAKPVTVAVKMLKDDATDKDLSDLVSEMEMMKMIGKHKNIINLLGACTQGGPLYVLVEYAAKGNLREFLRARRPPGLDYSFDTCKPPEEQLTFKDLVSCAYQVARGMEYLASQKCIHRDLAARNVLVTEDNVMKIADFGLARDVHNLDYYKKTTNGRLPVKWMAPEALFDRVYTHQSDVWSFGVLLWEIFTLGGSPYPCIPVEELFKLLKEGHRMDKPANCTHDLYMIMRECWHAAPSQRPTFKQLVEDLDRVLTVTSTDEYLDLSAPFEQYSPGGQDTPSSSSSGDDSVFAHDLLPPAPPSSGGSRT
# Summary of the method: as §1
# [3] = target: T3, scanMAX Kinase assay panel (Homo sapiens, UniProt P42681); conditions: TXK; 1 uM; read-out: Percent Control (%)
# T3 construct: purchased DiscoverX
# T3 sequence (P42681 1-527): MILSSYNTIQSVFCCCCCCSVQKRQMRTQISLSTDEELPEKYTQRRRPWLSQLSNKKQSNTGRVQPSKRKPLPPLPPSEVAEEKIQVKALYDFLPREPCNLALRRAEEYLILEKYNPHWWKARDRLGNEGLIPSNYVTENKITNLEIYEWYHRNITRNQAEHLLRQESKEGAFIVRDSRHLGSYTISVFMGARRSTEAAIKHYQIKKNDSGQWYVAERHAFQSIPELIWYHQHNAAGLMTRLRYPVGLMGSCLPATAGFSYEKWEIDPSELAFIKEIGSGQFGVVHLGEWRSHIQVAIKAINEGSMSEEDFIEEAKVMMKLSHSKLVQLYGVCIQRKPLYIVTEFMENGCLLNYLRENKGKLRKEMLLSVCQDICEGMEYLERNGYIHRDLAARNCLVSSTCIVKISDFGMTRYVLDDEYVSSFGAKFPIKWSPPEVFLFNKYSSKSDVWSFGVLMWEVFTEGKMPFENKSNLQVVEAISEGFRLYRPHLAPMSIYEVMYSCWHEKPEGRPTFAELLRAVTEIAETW
# Summary of the method: as §1
# [4] = target: T4, scanMAX Kinase assay panel (Homo sapiens, UniProt P48730); conditions: CSNK1D; 1 uM; read-out: Percent Control (%)
# T4 construct: purchased DiscoverX
# T4 sequence (P48730 whole entry): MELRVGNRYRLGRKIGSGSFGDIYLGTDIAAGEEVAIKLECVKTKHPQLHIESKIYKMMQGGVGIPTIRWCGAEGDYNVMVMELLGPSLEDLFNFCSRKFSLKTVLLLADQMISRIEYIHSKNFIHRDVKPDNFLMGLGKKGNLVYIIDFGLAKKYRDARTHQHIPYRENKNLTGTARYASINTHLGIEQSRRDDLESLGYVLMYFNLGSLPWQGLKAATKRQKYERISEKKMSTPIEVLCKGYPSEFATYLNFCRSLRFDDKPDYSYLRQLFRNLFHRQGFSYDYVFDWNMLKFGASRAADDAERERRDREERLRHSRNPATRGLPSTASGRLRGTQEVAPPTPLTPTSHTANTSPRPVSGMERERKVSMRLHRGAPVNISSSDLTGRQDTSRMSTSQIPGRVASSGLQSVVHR
# Summary of the method: as §1
# [5] = target: T5, scanMAX Kinase assay panel (Homo sapiens, UniProt P52333); conditions: JAK3 (JH1domain-catalytic); 1 uM; read-out: Percent Control (%)
# T5 construct: purchased DiscoverX
# T5 sequence (P52333 1-1124): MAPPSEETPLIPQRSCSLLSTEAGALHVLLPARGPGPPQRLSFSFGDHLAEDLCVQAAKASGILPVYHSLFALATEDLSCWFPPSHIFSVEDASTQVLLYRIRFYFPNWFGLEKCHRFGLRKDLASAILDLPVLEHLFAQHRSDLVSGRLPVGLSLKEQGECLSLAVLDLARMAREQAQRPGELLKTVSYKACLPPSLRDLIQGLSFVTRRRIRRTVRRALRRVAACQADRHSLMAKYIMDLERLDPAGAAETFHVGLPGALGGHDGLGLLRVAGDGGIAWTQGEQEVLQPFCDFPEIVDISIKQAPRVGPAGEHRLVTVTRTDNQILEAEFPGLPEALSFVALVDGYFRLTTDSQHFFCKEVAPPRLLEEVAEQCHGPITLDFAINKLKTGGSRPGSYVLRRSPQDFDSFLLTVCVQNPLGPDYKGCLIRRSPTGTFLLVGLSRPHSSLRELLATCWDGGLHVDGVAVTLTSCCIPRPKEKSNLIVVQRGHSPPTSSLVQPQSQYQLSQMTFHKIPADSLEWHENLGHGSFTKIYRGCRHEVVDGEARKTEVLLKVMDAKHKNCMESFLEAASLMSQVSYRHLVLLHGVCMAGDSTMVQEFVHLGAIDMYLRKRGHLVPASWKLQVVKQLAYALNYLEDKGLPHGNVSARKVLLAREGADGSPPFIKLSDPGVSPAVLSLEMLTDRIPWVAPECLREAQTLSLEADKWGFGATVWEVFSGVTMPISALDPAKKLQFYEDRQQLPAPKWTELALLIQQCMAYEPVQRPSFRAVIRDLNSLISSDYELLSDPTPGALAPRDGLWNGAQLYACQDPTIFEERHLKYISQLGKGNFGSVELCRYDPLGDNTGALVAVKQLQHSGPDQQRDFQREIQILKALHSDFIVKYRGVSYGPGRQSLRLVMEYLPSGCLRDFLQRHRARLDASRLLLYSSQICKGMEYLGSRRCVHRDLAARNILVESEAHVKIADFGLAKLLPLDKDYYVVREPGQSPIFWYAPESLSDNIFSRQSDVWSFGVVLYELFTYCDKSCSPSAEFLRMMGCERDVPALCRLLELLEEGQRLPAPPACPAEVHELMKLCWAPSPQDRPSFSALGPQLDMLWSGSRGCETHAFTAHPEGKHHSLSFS
# Summary of the method: as §1
# [6] = target: T6, scanMAX Kinase assay panel (Homo sapiens, UniProt P54756); conditions: EPHA5; 1 uM; read-out: Percent Control (%)
# T6 construct: purchased DiscoverX
# T6 sequence (P54756 25-1037): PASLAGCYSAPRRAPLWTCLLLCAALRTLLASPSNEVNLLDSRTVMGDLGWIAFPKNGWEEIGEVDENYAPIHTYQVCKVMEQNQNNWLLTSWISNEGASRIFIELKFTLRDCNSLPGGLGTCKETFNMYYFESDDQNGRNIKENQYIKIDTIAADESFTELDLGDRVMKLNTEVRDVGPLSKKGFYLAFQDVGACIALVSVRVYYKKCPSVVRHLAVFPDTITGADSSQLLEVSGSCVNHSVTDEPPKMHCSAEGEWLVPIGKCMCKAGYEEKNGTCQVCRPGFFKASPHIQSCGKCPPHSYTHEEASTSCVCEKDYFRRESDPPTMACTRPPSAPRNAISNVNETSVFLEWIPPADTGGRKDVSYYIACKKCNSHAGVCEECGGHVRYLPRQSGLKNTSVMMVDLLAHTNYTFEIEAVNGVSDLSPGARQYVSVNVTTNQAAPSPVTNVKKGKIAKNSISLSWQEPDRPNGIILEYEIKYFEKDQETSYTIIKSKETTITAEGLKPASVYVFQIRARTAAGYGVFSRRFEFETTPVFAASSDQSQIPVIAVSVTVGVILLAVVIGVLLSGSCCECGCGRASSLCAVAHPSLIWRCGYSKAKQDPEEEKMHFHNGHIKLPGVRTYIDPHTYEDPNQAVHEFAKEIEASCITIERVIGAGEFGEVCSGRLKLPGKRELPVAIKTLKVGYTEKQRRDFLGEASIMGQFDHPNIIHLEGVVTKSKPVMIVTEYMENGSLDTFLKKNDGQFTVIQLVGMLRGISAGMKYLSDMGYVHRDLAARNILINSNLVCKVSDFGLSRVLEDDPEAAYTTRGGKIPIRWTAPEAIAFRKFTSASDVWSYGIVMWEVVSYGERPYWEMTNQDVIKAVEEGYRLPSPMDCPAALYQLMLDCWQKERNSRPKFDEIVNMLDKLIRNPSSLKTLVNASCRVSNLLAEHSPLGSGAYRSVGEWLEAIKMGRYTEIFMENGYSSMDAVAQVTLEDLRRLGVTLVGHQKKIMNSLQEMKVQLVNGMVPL
# Summary of the method: as §1
# [7] = target: T7, scanMAX Kinase assay panel (Homo sapiens, UniProt Q08345); conditions: DDR1; 1 uM; read-out: Percent Control (%)
# T7 construct: purchased DiscoverX
# T7 sequence (Q08345 19-913): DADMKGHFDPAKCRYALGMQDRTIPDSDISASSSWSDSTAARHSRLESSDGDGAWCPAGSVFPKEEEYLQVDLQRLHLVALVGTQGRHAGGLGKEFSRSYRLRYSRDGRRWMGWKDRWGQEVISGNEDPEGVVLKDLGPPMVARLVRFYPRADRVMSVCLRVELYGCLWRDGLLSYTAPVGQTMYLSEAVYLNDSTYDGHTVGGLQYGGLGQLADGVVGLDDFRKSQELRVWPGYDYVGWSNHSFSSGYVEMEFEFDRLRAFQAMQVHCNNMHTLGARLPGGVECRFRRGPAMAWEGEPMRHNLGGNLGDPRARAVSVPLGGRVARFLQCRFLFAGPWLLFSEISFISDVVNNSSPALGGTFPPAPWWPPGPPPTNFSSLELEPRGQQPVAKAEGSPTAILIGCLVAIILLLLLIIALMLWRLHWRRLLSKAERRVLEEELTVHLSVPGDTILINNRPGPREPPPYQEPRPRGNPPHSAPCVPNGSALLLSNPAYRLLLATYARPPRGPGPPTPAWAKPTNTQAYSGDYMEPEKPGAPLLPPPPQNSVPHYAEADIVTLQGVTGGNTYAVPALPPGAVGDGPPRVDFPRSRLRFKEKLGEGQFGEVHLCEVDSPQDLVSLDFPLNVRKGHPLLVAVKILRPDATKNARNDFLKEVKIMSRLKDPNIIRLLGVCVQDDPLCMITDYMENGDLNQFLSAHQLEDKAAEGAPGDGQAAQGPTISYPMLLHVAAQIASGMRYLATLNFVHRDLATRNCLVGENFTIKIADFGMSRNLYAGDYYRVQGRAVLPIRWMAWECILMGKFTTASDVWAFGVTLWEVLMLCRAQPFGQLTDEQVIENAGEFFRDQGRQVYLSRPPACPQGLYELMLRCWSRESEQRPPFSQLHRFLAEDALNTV
# Summary of the method: as §1
# [8] = target: T8, scanMAX Kinase assay panel (Homo sapiens, UniProt Q96PN8); conditions: TSSK3; 1 uM; read-out: Percent Control (%)
# T8 construct: purchased DiscoverX
# T8 sequence (Q96PN8 1-268): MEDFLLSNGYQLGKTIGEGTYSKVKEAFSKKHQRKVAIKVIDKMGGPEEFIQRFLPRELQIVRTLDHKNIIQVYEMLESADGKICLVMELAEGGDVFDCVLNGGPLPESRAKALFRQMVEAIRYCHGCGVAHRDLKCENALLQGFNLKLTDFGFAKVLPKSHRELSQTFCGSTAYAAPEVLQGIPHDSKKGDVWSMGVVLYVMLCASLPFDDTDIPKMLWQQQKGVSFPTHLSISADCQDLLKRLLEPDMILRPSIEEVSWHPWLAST
# Summary of the method: as §1
# [9] = target: T9, scanMAX Kinase assay panel (Mycobacterium tuberculosis, UniProt P9WI81); conditions: read-out: Percent Control (%)
# T9 construct: purchased DiscoverX
# T9 sequence (P9WI81 whole entry): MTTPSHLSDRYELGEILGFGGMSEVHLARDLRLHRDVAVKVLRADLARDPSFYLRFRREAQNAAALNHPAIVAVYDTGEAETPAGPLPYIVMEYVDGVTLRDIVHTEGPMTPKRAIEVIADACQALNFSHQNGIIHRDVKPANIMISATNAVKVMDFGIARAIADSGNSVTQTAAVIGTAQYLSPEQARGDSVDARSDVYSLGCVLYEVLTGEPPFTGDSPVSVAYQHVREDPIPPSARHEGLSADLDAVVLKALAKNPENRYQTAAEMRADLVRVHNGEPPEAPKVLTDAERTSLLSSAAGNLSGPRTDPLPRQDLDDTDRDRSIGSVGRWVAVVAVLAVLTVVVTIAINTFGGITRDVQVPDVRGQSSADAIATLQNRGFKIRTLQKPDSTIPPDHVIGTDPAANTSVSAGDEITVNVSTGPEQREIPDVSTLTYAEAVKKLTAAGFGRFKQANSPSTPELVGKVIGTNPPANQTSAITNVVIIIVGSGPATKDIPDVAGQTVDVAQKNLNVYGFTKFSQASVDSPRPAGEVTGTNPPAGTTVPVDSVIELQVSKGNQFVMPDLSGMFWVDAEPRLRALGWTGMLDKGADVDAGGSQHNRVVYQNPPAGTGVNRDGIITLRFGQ
# Summary of the method: as §1
Structure (SMILES),remaining binding at 1 µM [1] [%],remaining binding at 1 µM [2] [%],remaining binding at 1 µM [3] [%],remaining binding at 1 µM [4] [%],remaining binding at 1 µM [5] [%],remaining binding at 1 µM [6] [%],remaining binding at 1 µM [7] [%],remaining binding at 1 µM [8] [%],remaining binding at 1 µM [9] [%]
"Cc1ccc(C(=O)Nc2ccc(CN3CCN(C)CC3)c(C(F)(F)F)c2)cc1C#Cc1cnc2c(Nc3cnn(C)c3)cccn12 [Example 1, 4-methyl-3-((8-((1-methyl-1H-pyrazol-4-yl)amino)imidazo[1,2-a]pyridin-3-yl)ethynyl)-N-(4-((4-methylpiperazin-1-yl)methyl)-3-(trifluoromethyl)phenyl)benzamide]",1,3,1,91,1,1,0,95,95
"Cc1cn(-c2cc(NC(=O)c3ccc(C)c(C#Cc4cnc5c(Nc6cnn(C)c6)cccn45)c3)cc(C(F)(F)F)c2)cn1 [Example 12, 4-methyl-N-(3-(4-methyl-1H-imidazol-1-yl)-5-(trifluoromethyl)phenyl)-3-((8-((1-methyl-1H-pyrazol-4-yl)amino)imidazo[1,2-a]pyridin-3-yl)ethynyl)benzamide]",11,34,3,79,19,31,7,100,100
Cc1ccc(NC(=O)C2(C(=O)Nc3ccc(F)cc3)CC2)cc1C#Cc1cnc2c(Nc3cnn(C(C)C)c3)cccn12 [Example 78],59,96,91,92,100,100,1,100,97
